Data taken from the NIST ThermoML archive (doi:10.1021/je700619q).

Legend:
[1] = 101 kPa, Liquid
[2] = Boiling temperature at pressure P; settings: 101 kPa; Liquid; Distillation
[3] = xn = mol fraction of the nth substance listed; settings: 101 kPa, Liquid

CCNCC [diethylamine]
[1]
Settings	mass density [kg/m3]	speed of sound [m/s]	viscosity [mPa·s]
293 K	707.6	1140.8	0.3212
303 K	693.6	1089.6	0.275
313 K	678.4	1045	0.2577

Settings	Boiling temperature at pressure P [°C]
[2]	55.30

CCNCC [diethylamine] + CCCCCCCCCCO
[3]
Settings	mass density, 293 K [kg/m3]	mass density, 303 K [kg/m3]	mass density, 313 K [kg/m3]	speed of sound, 293 K [m/s]	speed of sound, 303 K [m/s]	speed of sound, 313 K [m/s]	viscosity, 293 K [mPa·s]	viscosity, 303 K [mPa·s]	viscosity, 313 K [mPa·s]
x1 = 0.0989	828.2	820.7	811.5	1383.2	1372.4	1332.8	11.04	7.825	5.532
x1 = 0.1963	824.8	814.6	806.3	1352	1350	1326	8.974	6.352	4.522
x1 = 0.3062	818.1	810	803.7	1347.2	1340	1316	7.105	4.977	3.558
x1 = 0.4062	814.4	808.4	802.1	1333.6	1326	1297.2	5.423	3.524	2.793
x1 = 0.4898	799	794.2	788.9	1321.8	1314	1290.8	3.948	2.857	2.244
x1 = 0.5973	795.6	790.7	782.9	1310.4	1302.4	1274.8	2.609	2.015	1.631
x1 = 0.6708	785.4	779.9	773.7	1302.4	1295.6	1258.4	1.925	1.652	1.257
x1 = 0.7388	779.4	773.3	769.7	1293.6	1278.8	1238.4	1.43	1.253	0.9795
x1 = 0.8012	770.2	763.6	755.5	1288.8	1266.4	1212	1.067	0.9298	0.7247
x1 = 0.8562	759.5	753.7	745.6	1247.2	1216.8	1164.8	0.7924	0.689	0.5424
x1 = 0.9031	741.4	737.6	728.2	1211.2	1176	1123.2	0.6052	0.5352	0.4368
x1 = 0.9601	720.7	709.2	694.8	1173.2	1130.4	1082	0.4396	0.3609	0.3265
x1 = 1	707.6	693.6	678.4	1140.8	1089.6	1045	0.3212	0.275	0.2577
